Experiments:
smallflower flatsedge = test: Test B flood test smallflower flatsedge; format: in vivo, Cyperus difformis
In short: (§1)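 Flood test on plants grown to the 2-leaf stage; treated plants kept in greenhouse twelve to sixteen days, then visually rated against controls on a 0 (no effect) to 10 (complete control) scale.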

purple nutsedge = test: Test B pre/postemergence purple nutsedge; format: in vivo, Cyperus rotundus
In short: (§2)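 Herbicidal effect was estimated by eye on a ten-point control scale after plants spent twelve to sixteen days in a greenhouse following soil or foliar treatment. Foliar sprays targeted plants at one to four leaves; all doses were formulated in a non-phytotoxic solvent with surfactant.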

blackgrass = test: Test B pre/postemergence blackgrass; format: in vivo, Alopecurus myosuroides
In short: as §2

wild oat = test: Test B pre/postemergence wild oat; format: in vivo, Avena fatua; settings: for Plant response rating, Wild oats: Rate 250 g/ha
In short: as §2

bamyardgrass = test: Test B flood test barnyardgrass; format: in vivo, Echinochloa crus-galli
In short: as §1

morningglory = test: Test B pre/postemergence morningglory; format: in vivo, Ipomoea hederacea
In short: as §2

corn = test: Test B pre/postemergence corn; format: in vivo, Zea mays
In short: as §2

crabgrass = test: Test B pre/postemergence crabgrass; format: in vivo, Digitaria sanguinalis
In short: as §2

velvetleaf = test: Test B pre/postemergence velvetleaf; format: in vivo, Abutilon theophrasti; settings: for Plant response rating, Velvetleaf: Rate 250 g/ha
In short: as §2

surinam grass = test: Test B pre/postemergence surinam grass; format: in vivo, Brachiaria decumbens
In short: as §2

rice = test: Test B flood test rice; format: in vivo, Oryza sativa
In short: as §1

duck salad = test: Test B flood test duck salad; format: in vivo, Heteranthera limosa
In short: as §1

bedstraw = test: Test B pre/postemergence bedstraw; format: in vivo, Galium aparine
In short: as §2

wheat = test: Test B pre/postemergence wheat; format: in vivo, Triticum aestivum; settings: for Plant response rating, Wheat: Rate 250 g/ha
In short: as §2

giant foxtail = test: Test B pre/postemergence giant foxtail; format: in vivo, Setaria faberii
In short: as §2

cocklebur = test: Test B pre/postemergence cocklebur; format: in vivo, Xanthium strumarium
In short: as §2

[1] = Rate 250 g/ha, headed Pre-emergence (flood test species), scale 0 to 10 (0 no effect, 10 complete control)
[2] = Rate 500 g/ha, headed Pre-emergence (flood test species), scale 0 to 10 (0 no effect, 10 complete control)
[3] = Rate 2000 g/ha, Pre-emergence (as headed), scale 0 to 10
[4] = Postemergence, Rate 125 g/ha, scale of 0 to 10 where 0 is no effect and 10 is complete control
[5] = Postemergence, Rate 250 g/ha, scale 0 to 10, 0 no effect, 10 complete control
[6] = Preemergence, Rate 62 g/ha, scale 0 to 10 (0 no effect, 10 complete control)
[7] = Preemergence, Rate 125 g/ha, scale 0 to 10 (0 no effect, 10 complete control)
[8] = Preemergence, Rate 250 g/ha, scale of 0 to 10 where 0 is no effect and 10 is complete control
[9] = Preemergence, Rate 500 g/ha, scale 0 to 10 (0 no effect, 10 complete control)
[10] = Rate 62 g/ha, Postemergence, scale of 0 to 10 where 0 is no effect and 10 is complete control
[11] = Rate 500 g/ha, Postemergence, scale 0 to 10, 0 no effect, 10 complete control
[12] = Preemergence, Rate 125 g/ha, 0 is no effect, 10 is complete control
[13] = Preemergence, scale of 0 to 10 where 0 is no effect and 10 is complete control
[14] = Postemergence, scale 0 to 10, 0 is no effect, 10 is complete control
[15] = Rate 1000 g/ha, Pre-emergence (as headed), scale 0 to 10
[16] = Postemergence, Rate 62 g/ha, scale 0 to 10, 0 is no effect, 10 is complete control
[17] = Rate 125 g/ha, Postemergence, scale 0 to 10, 0 no effect, 10 complete control

## CCn1c(=O)on(C(=O)N(c2ccc(F)cc2)C(C)C)c1=O [Compound 107]
Smallflower flatsedge; Pre-emergence, Rate 1000 g/ha, scale 0 to 10 (0 no effect, 10 complete control)
  S. Flatsedge plant response rating: 0
Smallflower flatsedge; [1]
  S. Flatsedge plant response rating: 0
Smallflower flatsedge; [2]
  Plant response rating, S. Flatsedge: 0
Smallflower flatsedge; [3]
  S. Flatsedge plant response rating: 5
Purple nutsedge; [4]
  Nutsedge plant response rating: 3
Purple nutsedge; [5]
  Nutsedge plant response rating: 5
Purple nutsedge; [6]
  Nutsedge plant response rating: 0
Purple nutsedge; [7]
  Plant response rating, Nutsedge: 0
Purple nutsedge; [8]
  Plant response rating, Nutsedge: 2
Purple nutsedge; [9]
  Nutsedge plant response rating: 6
Purple nutsedge; [10]
  Nutsedge plant response rating: 3
Purple nutsedge; [11]
  Nutsedge plant response rating: 6
blackgrass; [4]
  Blackgrass plant response rating: 7
blackgrass; [5]
  Blackgrass plant response rating: 8
blackgrass; [6]
  Blackgrass plant response rating: 9
blackgrass; [7]
  Plant response rating, Blackgrass: 10
blackgrass; [8]
  Plant response rating, Blackgrass: 10
blackgrass; [9]
  Blackgrass plant response rating: 10
blackgrass; [10]
  Blackgrass plant response rating: 7
blackgrass; [11]
  Blackgrass plant response rating: 8
Wild oat; [4]
  Wild oats plant response rating: 3
Wild oat; [6]
  Wild oats plant response rating: 9
Wild oat; [12]
  Wild oats plant response rating (0 to 10 scale): 9
Wild oat; [13]
  Plant response rating, Wild oats: 10
Wild oat; [9]
  Wild oats plant response rating: 10
Wild oat; [10]
  Wild oats plant response rating: 0
Wild oat; [14]
  Plant response rating, Wild oats: 5
Wild oat; [11]
  Wild oats plant response rating: 9
bamyardgrass; [1]
  Barnyardgrass plant response rating: 0
bamyardgrass; [2]
  Plant response rating, Barnyardgrass: 0
bamyardgrass; [15]
  Barnyardgrass plant response rating: 0
bamyardgrass; Rate 2000 g/ha, Pre-emergence (as headed), scale 0 to 10, 0 no effect, 10 complete control
  Barnyardgrass plant response rating: 0
morningglory; [4]
  Morningglory plant response rating: 3
morningglory; [5]
  Morningglory plant response rating: 3
morningglory; [6]
  Morningglory plant response rating: 0
morningglory; [7]
  Plant response rating, Morningglory: 0
morningglory; [8]
  Plant response rating, Morningglory: 2
morningglory; [9]
  Morningglory plant response rating: 7
morningglory; [10]
  Morningglory plant response rating: 3
morningglory; [11]
  Morningglory plant response rating: 3
corn; [4]
  Corn plant response rating: 2
corn; [5]
  Corn plant response rating: 5
corn; [6]
  Corn plant response rating: 4
corn; [7]
  Plant response rating, Corn: 7
corn; [8]
  Plant response rating, Corn: 9
corn; [9]
  Corn plant response rating: 9
corn; [10]
  Corn plant response rating: 2
corn; [11]
  Corn plant response rating: 6
crabgrass; [4]
  Crabgrass plant response rating: 8
crabgrass; [5]
  Crabgrass plant response rating: 9
crabgrass; [6]
  Crabgrass plant response rating: 10
crabgrass; [7]
  Plant response rating, Crabgrass: 10
crabgrass; [8]
  Plant response rating, Crabgrass: 10
crabgrass; [9]
  Crabgrass plant response rating: 10
crabgrass; [10]
  Crabgrass plant response rating: 8
crabgrass; [11]
  Crabgrass plant response rating: 9
velvetleaf; [4]
  Velvetleaf plant response rating: 5
velvetleaf; [6]
  Velvetleaf plant response rating: 7
velvetleaf; [12]
  Velvetleaf plant response rating (0 to 10 scale): 10
velvetleaf; [13]
  Plant response rating, Velvetleaf: 10
velvetleaf; [9]
  Velvetleaf plant response rating: 10
velvetleaf; [10]
  Velvetleaf plant response rating: 4
velvetleaf; [14]
  Plant response rating, Velvetleaf: 5
velvetleaf; [11]
  Velvetleaf plant response rating: 7
Surinam grass; [16]
  B. signalgrass plant response rating: 7
Surinam grass; [5]
  B. signalgrass plant response rating: 8
Surinam grass; [6]
  B. signalgrass plant response rating: 5
Surinam grass; [7]
  Plant response rating, B. signalgrass: 7
Surinam grass; [8]
  Plant response rating, B. signalgrass: 10
Surinam grass; [9]
  B. signalgrass plant response rating: 10
Surinam grass; [17]
  B. signalgrass plant response rating: 7
Surinam grass; Rate 500 g/ha, Postemergence, scale of 0 to 10 where 0 is no effect and 10 is complete control
  B. signalgrass plant response rating: 8
rice; [1]
  Rice plant response rating: 0
rice; [2]
  Plant response rating, Rice: 0
rice; [15]
  Rice plant response rating: 0
rice; [3]
  Rice plant response rating: 0
Duck salad; [1]
  Ducksalad plant response rating: 0
Duck salad; [2]
  Plant response rating, Ducksalad: 0
Duck salad; [15]
  Ducksalad plant response rating: 0
Duck salad; [3]
  Ducksalad plant response rating: 0
bedstraw; [16]
  Bedstraw plant response rating: 2
bedstraw; [5]
  Bedstraw plant response rating: 4
bedstraw; [6]
  Bedstraw plant response rating: 2
bedstraw; [7]
  Plant response rating, Bedstraw: 7
bedstraw; [8]
  Plant response rating, Bedstraw: 10
bedstraw; [9]
  Bedstraw plant response rating: 10
bedstraw; [17]
  Bedstraw plant response rating: 3
bedstraw; [11]
  Bedstraw plant response rating: 9
wheat; [4]
  Wheat plant response rating: 5
wheat; [6]
  Wheat plant response rating: 0
wheat; [12]
  Wheat plant response rating (0 to 10 scale): 5
wheat; [13]
  Plant response rating, Wheat: 7
wheat; [9]
  Wheat plant response rating: 8
wheat; [10]
  Wheat plant response rating: 2
wheat; [14]
  Plant response rating, Wheat: 7
wheat; [11]
  Wheat plant response rating: 8
Giant foxtail; [4]
  Giant foxtail plant response rating: 8
Giant foxtail; [5]
  Giant foxtail plant response rating: 8
Giant foxtail; [6]
  Giant foxtail plant response rating: 10
Giant foxtail; [7]
  Plant response rating, Giant foxtail: 10
Giant foxtail; [8]
  Plant response rating, Giant foxtail: 10
Giant foxtail; [9]
  Giant foxtail plant response rating: 10
Giant foxtail; [10]
  Giant foxtail plant response rating: 8
Giant foxtail; [11]
  Giant foxtail plant response rating: 8
cocklebur; [4]
  Cocklebur plant response rating: 0
cocklebur; [5]
  Cocklebur plant response rating: 1
cocklebur; [6]
  Cocklebur plant response rating: 0
cocklebur; [7]
  Plant response rating, Cocklebur: 0
cocklebur; [8]
  Plant response rating, Cocklebur: 0
cocklebur; [9]
  Cocklebur plant response rating: 0
cocklebur; [10]
  Cocklebur plant response rating: 0
cocklebur; [11]
  Cocklebur plant response rating: 3
